What was measured:
[1] = target: T1, Ephrin type-A receptor 1 (Homo sapiens) (UniProt P21709); test: EPHA1 Invitrogen selectivity data (BI); details: Compound concentration 3.0 uM
T1 sequence (whole entry): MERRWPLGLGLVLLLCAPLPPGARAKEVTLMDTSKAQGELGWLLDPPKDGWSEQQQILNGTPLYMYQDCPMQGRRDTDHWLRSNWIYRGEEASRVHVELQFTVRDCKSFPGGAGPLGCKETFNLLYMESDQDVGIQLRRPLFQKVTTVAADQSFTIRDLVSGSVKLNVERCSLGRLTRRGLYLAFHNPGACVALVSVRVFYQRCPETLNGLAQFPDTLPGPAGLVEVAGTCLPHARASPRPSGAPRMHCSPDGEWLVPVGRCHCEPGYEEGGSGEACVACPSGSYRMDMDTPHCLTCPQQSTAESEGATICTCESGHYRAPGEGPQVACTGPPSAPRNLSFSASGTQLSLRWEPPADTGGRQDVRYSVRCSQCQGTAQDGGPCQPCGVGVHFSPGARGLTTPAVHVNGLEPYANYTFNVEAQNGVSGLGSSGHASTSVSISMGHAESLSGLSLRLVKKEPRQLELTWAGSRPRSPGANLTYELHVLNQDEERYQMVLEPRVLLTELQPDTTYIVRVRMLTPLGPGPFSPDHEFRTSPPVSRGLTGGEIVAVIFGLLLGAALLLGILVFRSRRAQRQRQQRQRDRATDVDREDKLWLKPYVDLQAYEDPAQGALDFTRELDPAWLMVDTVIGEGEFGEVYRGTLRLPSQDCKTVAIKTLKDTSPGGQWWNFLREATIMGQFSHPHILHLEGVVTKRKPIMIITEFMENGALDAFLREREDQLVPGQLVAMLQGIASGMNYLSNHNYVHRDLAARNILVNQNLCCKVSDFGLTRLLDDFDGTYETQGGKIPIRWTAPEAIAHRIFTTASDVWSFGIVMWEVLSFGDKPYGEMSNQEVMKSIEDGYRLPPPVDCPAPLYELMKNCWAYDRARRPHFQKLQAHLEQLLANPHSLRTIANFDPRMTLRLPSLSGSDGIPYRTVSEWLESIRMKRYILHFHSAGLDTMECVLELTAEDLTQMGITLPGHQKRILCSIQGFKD

[2] = target: Nociceptin receptor (Homo sapiens) (UniProt P41146); test: ORL1/H Cerep selectivity data (BI); details: Compound concentration 20.0 uM
Sequence of Nociceptin receptor (Homo sapiens) (P41146 whole entry, canonical isoform): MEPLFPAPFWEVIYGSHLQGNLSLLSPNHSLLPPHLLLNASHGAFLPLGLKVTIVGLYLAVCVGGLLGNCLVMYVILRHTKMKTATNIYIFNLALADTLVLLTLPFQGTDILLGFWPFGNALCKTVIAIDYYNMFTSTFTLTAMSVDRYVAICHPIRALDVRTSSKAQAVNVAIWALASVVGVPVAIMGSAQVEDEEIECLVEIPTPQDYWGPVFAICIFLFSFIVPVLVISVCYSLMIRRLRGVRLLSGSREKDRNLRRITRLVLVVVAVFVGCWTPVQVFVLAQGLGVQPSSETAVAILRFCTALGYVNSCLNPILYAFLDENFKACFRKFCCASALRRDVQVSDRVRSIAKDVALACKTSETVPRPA

[3] = target: Casein kinase I isoform gamma-2 (Homo sapiens) (UniProt P78368); test: CSNK1G2 Invitrogen selectivity data (BI); details: Compound concentration 3.0 uM
Sequence of Casein kinase I isoform gamma-2 (Homo sapiens) (P78368 whole entry, looked up, the tested form may be a part, canonical isoform): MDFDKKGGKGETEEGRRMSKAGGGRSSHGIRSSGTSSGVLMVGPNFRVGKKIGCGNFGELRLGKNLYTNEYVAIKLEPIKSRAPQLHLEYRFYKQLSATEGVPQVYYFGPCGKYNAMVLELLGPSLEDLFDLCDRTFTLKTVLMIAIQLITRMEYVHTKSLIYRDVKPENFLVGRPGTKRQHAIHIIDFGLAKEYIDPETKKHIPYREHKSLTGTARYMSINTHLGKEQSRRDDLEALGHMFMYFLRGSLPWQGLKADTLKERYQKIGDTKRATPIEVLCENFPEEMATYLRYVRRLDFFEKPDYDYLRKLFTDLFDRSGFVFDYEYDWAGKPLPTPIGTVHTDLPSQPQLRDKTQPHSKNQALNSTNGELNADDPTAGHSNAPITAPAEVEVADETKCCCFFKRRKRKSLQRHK

[4] = target: PAS domain-containing serine/threonine-protein kinase (Homo sapiens) (UniProt Q96RG2); test: PASK Invitrogen selectivity data (BI); details: Compound concentration 3.0 uM
[5] = target: Casein kinase I isoform alpha (Homo sapiens) (UniProt P48729); test: CSNK1A1 Invitrogen selectivity data (BI); details: Compound concentration 3.0 uM
Sequence of Casein kinase I isoform alpha (Homo sapiens) (P48729 2-337 limits assumed): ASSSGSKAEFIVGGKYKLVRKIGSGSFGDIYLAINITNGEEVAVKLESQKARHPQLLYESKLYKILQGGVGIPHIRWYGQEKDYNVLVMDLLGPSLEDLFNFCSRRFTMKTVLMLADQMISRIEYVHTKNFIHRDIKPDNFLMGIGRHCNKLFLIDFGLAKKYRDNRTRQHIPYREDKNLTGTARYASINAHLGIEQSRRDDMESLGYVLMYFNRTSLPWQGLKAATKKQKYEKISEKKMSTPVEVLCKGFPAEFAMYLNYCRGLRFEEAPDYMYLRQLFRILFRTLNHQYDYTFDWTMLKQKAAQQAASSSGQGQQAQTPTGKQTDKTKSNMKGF

[6] = target: T2, Inhibitor of nuclear factor kappa-B kinase subunit alpha (Homo sapiens) (UniProt O15111); test: CHUK_IKKA Invitrogen selectivity data (BI); details: Compound concentration 3.0 uM
T2 sequence (whole entry): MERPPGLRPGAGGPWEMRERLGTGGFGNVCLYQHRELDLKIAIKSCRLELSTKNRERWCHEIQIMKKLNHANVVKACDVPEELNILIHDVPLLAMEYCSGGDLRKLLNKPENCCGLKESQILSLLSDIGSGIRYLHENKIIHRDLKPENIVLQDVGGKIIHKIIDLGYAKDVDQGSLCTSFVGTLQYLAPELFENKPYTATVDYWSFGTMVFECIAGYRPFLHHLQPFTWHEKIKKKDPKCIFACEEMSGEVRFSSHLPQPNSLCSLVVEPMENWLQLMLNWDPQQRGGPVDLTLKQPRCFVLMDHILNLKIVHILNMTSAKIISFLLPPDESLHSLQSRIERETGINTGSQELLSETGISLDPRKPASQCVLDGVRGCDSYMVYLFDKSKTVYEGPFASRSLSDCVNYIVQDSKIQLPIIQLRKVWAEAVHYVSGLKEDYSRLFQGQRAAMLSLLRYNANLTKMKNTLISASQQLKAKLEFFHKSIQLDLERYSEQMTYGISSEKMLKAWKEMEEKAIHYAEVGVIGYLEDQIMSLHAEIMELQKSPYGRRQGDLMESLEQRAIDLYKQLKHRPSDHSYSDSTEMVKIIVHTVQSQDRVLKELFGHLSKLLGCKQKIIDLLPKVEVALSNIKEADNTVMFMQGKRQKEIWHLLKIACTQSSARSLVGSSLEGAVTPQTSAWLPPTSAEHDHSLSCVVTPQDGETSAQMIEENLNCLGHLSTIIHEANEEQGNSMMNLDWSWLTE

[7] = target: T3, Tyrosine-protein kinase TXK (Homo sapiens) (UniProt P42681); test: TXK Invitrogen selectivity data (BI); details: Compound concentration 3.0 uM
T3 sequence (whole entry): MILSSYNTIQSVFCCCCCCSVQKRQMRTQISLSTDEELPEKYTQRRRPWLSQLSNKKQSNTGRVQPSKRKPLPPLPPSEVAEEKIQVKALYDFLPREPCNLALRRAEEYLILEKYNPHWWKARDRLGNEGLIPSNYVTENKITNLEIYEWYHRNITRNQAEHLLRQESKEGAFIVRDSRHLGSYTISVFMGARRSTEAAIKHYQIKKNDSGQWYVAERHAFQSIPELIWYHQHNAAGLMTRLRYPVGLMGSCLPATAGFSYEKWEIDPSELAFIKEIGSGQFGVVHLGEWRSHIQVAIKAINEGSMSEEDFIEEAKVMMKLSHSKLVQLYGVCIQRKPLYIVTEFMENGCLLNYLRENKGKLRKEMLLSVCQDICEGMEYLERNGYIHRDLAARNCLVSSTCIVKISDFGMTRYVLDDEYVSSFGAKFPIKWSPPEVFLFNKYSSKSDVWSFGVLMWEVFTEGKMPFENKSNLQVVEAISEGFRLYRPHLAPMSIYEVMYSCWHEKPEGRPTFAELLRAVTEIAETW

[8] = target: Ribosomal protein S6 kinase alpha-1 (Homo sapiens) (UniProt Q15418); test: RPS6KA1 Invitrogen selectivity data (BI); details: Compound concentration 3.0 uM
[9] = target: Vascular endothelial growth factor receptor 2 (Homo sapiens) (UniProt P35968); test: KDR Invitrogen selectivity data (BI); details: Compound concentration 3.0 uM
Sequence of Vascular endothelial growth factor receptor 2 (Homo sapiens) (P35968 whole entry): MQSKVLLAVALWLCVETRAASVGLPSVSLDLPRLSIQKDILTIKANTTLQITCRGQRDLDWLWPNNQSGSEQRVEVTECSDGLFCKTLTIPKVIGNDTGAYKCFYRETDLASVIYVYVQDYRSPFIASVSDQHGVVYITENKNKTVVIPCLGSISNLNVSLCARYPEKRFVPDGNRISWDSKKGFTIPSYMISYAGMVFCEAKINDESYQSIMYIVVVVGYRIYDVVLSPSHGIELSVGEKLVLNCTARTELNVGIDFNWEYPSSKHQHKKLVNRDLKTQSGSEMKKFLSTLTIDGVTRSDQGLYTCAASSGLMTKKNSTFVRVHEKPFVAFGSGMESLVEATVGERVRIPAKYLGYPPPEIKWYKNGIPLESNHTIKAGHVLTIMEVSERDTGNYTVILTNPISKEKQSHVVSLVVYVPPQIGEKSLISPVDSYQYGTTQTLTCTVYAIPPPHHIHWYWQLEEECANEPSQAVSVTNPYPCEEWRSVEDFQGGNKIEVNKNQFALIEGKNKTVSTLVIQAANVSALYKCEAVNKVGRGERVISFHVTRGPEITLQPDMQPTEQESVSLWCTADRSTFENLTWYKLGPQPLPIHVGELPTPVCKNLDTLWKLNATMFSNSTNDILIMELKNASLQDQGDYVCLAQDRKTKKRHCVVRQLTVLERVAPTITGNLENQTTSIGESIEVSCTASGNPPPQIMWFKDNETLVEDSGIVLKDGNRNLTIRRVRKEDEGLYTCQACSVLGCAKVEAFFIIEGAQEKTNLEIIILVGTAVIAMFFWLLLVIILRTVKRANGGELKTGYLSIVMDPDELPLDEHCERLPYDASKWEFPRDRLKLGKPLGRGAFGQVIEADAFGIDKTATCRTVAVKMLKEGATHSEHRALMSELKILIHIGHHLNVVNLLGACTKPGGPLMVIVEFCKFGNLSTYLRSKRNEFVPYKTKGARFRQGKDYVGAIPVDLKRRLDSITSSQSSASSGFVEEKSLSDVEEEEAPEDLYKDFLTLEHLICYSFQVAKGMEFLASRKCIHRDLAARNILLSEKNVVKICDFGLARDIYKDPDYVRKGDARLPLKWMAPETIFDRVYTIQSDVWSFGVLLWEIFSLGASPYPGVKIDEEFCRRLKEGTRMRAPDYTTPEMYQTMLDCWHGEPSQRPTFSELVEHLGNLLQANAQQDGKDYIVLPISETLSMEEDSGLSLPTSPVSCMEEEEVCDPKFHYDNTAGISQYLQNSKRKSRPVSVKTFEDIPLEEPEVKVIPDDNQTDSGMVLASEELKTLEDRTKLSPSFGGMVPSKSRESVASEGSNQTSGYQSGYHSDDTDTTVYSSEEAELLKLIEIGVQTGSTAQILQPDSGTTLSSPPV

[10] = target: Serine/threonine-protein kinase PAK 4 (Homo sapiens) (UniProt O96013); test: PAK4 Invitrogen selectivity data (BI); details: Compound concentration 3.0 uM
[11] = target: L-type Ca2+ channel (diltiazem site), Cav1.2 alpha-1C (Rattus norvegicus, UniProt P22002); test: CA+/DILSI/R Cerep selectivity data (BI); parameters: mode of action inhibitor; details: rat brain, probe [3H]diltiazem, compound concentration 20 uM, read-out: % Ctrl
[12] = target: Muscarinic acetylcholine receptor M3 (Homo sapiens) (UniProt P20309); details: Compound concentration 10.0 uM
Sequence of Muscarinic acetylcholine receptor M3 (Homo sapiens) (P20309 whole entry, looked up): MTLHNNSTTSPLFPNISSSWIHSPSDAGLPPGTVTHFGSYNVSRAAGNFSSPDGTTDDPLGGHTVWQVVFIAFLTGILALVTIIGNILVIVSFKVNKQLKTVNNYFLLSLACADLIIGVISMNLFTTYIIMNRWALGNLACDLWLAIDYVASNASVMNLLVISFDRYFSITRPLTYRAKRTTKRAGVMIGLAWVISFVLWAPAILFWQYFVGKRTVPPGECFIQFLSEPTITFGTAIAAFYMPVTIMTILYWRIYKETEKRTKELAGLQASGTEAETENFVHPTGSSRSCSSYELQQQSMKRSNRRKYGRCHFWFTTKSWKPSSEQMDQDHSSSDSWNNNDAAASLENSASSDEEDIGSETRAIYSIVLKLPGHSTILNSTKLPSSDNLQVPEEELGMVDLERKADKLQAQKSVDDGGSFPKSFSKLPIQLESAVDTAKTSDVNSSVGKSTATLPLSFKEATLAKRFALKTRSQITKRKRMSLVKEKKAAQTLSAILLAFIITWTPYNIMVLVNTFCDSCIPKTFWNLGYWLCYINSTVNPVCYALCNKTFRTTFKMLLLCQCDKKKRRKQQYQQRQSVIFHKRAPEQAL

[13] = target: Platelet-activating factor receptor (Homo sapiens) (UniProt P25105); test: PAF/H Eurofins-Panlabs selectivity data (BI); details: Compound concentration 10.0 uM
Sequence of Platelet-activating factor receptor (Homo sapiens) (P25105 whole entry): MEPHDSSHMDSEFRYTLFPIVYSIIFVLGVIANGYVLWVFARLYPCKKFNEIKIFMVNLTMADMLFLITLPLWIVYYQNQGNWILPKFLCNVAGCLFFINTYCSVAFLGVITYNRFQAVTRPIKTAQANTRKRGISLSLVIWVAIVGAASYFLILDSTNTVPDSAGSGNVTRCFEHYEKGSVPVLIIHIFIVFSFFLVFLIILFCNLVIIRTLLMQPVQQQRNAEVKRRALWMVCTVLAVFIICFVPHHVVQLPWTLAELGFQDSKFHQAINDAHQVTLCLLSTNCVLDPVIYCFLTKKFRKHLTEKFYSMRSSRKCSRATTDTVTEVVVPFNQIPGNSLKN

[14] = target: Ribosomal protein S6 kinase alpha-4 (Homo sapiens) (UniProt O75676); test: RPS6KA4 Invitrogen selectivity data (BI); details: Compound concentration 3.0 uM
Sequence of Ribosomal protein S6 kinase alpha-4 (Homo sapiens) (O75676 whole entry, looked up): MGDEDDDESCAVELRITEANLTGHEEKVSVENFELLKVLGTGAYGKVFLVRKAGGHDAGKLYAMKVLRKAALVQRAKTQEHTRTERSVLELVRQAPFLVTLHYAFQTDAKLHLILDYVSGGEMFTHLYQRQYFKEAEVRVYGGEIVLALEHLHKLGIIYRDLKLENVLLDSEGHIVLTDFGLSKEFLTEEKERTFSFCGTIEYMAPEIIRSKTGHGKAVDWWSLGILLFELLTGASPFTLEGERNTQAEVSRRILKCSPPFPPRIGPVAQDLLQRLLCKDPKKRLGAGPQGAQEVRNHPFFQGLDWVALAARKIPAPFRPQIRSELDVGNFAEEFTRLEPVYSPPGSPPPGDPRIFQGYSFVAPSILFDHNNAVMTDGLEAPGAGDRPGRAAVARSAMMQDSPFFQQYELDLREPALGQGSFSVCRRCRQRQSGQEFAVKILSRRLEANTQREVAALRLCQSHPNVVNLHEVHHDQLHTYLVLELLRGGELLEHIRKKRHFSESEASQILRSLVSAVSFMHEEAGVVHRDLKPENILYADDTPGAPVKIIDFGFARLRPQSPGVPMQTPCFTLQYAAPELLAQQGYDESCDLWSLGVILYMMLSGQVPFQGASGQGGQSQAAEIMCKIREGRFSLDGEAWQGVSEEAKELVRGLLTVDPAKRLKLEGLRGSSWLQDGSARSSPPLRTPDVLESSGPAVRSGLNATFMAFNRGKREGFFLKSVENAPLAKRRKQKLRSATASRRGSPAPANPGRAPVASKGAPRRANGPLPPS

[15] = target: Testis-specific serine/threonine-protein kinase 2 (Homo sapiens) (UniProt Q96PF2); test: STK22B Invitrogen selectivity data (BI); details: Compound concentration 3.0 uM
Sequence of Testis-specific serine/threonine-protein kinase 2 (Homo sapiens) (Q96PF2 whole entry): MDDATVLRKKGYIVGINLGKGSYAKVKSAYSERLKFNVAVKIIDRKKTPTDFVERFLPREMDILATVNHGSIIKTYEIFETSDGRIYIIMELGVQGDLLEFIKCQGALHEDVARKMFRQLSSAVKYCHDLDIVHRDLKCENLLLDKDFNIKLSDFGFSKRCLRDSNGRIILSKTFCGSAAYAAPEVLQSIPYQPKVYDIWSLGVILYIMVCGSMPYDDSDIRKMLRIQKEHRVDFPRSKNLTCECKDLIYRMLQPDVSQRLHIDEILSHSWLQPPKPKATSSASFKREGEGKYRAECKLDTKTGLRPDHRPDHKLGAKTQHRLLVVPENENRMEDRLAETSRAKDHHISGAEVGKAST

In the case of `CN(C)C(=O)Cn1cc(-c2nc([C@@](C)(c3ccc(-c4cnc(N)nc4)cc3)C3CC3)no2)cn1` [BI 665915], the residual activity [1] is reported as 89%, the residual activity [2] is reported as 91% and the residual activity [3] is reported as 98.5%. For the same molecule, the residual activity [4] was 100%, the residual activity [5] was 96% and the residual activity [6] was 99.5%. For the same molecule, the residual activity [7] was 95%, the residual activity [8] was 96% and the residual activity [9] was 90.5%. For the same molecule, the residual activity [10] was 93.5%, the activity at 20 µM [11] was 119% (not active) and the inhibition [12] was 7.43%. It also gave a residual activity [13] of 71%, a residual activity [14] of 103% and a residual activity [15] of 93%.

Reference: ChEMBL document CHEMBL4507276 (2021)
